Where two headings read alike, the source gives them in different places.

The results in this text go back to patent US7875595B2, “2-polycyclic propynyl adenosine analogs having A2A agonist activity” (University of Virginia Patent Foundation, priority 2004, dated 2011).

One experiment deals with T1, human A1 AR (Homo sapiens, UniProt P30542).
T1 construct: expressed in transfected cells
T1 sequence (P30542 1-326): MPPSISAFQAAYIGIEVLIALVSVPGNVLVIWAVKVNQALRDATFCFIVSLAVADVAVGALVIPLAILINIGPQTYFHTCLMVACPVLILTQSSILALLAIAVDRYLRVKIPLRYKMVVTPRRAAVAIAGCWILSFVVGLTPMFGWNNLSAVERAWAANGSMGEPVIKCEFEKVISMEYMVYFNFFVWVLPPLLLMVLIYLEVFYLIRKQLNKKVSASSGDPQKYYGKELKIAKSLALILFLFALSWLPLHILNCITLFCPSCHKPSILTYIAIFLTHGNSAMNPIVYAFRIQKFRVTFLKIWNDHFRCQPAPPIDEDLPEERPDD
As to the kind of experiment: Radioligand competition binding to human A1 adenosine receptor (125I-ABA). The following applies: membranes of CHO K1 cells expressing human A1 AR, read-out: A1 (nM) binding affinity. As for the experimental part: (§1) Sf9 cells were cultured in Grace's medium supplemented with 10% fetal bovine serum, 2.5 μg/ml amphotericin B and 50 μg/ml gentamycin in an atmosphere of 50% N2/50% O2. Viral infection was performed at a density of 2.5×10^6 cells/mL with a multiplicity of infection of two for each virus used. Infected cells were harvested 3 days post-infection and washed twice in insect PBS (PBS pH 6.3). Cells were then resuspended in lysis buffer (20 mM HEPES pH 7.5, 150 mM NaCl, 3 mM MgCl2, 1 mM β-mercaptoethanol (BME), 5 μg/mL leupeptin, 5 μg/mL pepstatin A, 1 μg/mL aprotinin, and 0.1 mM PMSF) and snap frozen for storage at −80° C. Cells were thawed on ice, brought to 30 mL total volume in lysis buffer, and burst by N2 cavitation (600 psi for 20 minutes). A low-speed centrifugation was performed to remove any unlysed cells (1000×g for 10 minutes), followed by a high-speed centrifugation (17,000×g for 30 minutes). The pellet from the final centrifugation was homogenized in buffer containing 20 mM HEPES pH 8, 100 mM NaCl, 1% glycerol, 2 μg/mL leupeptin, 2 μg/mL pepstatin A, 2 μg/mL Aprotinin, 0.1 mM PMSF, and 10 μM GDP using a small glass homogenizer followed by passage through a 26 gauge needle. Membranes were aliquoted, snap frozen in liquid N2, and stored at −80° C. Membranes from cells stably expressing the human A1 AR(CHO K1 cells) or A3 AR (HEK 293 cells) were prepared as described (Robeva et al., 1996).
(§2) Radioligand binding to recombinant human A2A receptors in Sf9 cell membranes was performed using either the radio labeled agonist, ^125I-APE (Luthin et al., 1995) or the radio labeled antagonist, ^125I-ZM241385 (^125I-ZM). To detect the high affinity, GTPγS-sensitive state of A1 and A3AR, we used the agonist, ^125I-ABA (Linden et al., 1985; Linden et al., 1993). Binding experiments were performed in triplicate with 5 μg (A2A) or 25 μg (A1 and A3) membrane protein in a total volume of 0.1 mL HE buffer (20 mM HEPES and 1 mM EDTA) with 1 U/mL adenosine deaminase and 5 mM MgCl2 with or without 50 μM GTPγS. […] Nonspecific binding was measured in the presence of 50 μM NECA. […]
(In general: In a radioligand displacement assay an active substance lowers the binding of a labelled ligand.)

Another experiment concerns human neutrophils. In words: Human neutrophil oxidative activity, luminol-enhanced chemiluminescence (fMLP stimulated). The class given is cell-based. To be noted: human neutrophil experiment as described in Example 6 without Rolipram, peak chemiluminescence, read-out: Functional. The method, then: Chemiluminescence Methods: Luminol enhanced chemiluminescence, a measure of neutrophil oxidative activity, is dependent upon both superoxide production and mobilization of the granule enzyme myeloperoxidase. The light is emitted from unstable high-energy oxygen species such as hypochlorous acid and singlet oxygen generated by activated neutrophils.
Following incubation 100 µL aliquots of the PMN were transferred to wells (White walled clear bottom 96 well tissue culture plates Costar #3670; 2 wells/condition) containing […] and luminol (final concentration 100 µM) with or without adenosine agonist (final agonist concentrations 0.01-1000 nM). The plate was incubated 5 min (37° C.) and then fMLP ([…] in HA; final concentration […]) was added to all wells.
Peak chemiluminescence was determined with a Victor 1420 Multilabel Counter in the chemiluminescence mode using the Wallace Workstation software. Data are presented as peak chemiluminescence as percent of activity in the absence of an adenosine agonist. The EC50 was determined using PRISM software. All compounds were tested with PMNs from three separate donors.
Purified neutrophils (−98% neutrophils and >95% viable by trypan blue exclusion) containing <1 platelet per 5 neutrophils and <50 pg/ml endotoxin (limulus amebocyte lysate assay) were obtained from normal heparinized (10 U/ml) venous blood by a one step Ficoll-hypaque separation procedure (A. Ferrante et al., J. Immunol. Meth., 36, 109 (1980)).
Luminol-enhanced chemiluminescence, a measure of neutrophil oxidative activity, is dependent upon both superoxide production and mobilization of the lysosomal granule enzyme myeloperoxidase. The light is emitted from unstable high-energy oxygen species generated by activated neutrophils. […] Then luminol (1×10^−4 M) enhanced f-met-leu-phe (1 mcM) stimulated chemiluminescence was read with a Chronolog® Photometer (Crono-log Corp., Havertown, Pa.) at 37° C. for 2-4 minutes. […]

The target of experiment [1] is T2, recombinant human A2A receptors (Homo sapiens, UniProt P29274).
T2 construct: expressed in transfected cells; host or cells: Sf9 insect cells, viral infection, membranes
T2 sequence (P29274 whole entry): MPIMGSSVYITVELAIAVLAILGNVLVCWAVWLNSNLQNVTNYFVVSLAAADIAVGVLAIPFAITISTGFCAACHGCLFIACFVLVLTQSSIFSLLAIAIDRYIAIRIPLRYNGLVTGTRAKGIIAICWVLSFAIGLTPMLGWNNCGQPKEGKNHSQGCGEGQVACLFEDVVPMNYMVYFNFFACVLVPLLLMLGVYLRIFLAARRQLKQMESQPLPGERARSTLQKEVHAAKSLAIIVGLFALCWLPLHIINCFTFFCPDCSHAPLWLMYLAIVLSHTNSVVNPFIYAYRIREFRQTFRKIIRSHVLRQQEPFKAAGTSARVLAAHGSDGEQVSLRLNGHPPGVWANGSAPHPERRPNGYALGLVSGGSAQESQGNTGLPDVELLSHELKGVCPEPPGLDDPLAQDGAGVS
In words: Radioligand competition binding to recombinant human A2A receptors in Sf9 cell membranes (125I-APE or 125I-ZM241385). To be noted: read-out: A2A (nM) binding affinity. As for the experimental part: as §1, §2

The target in the next experiment is T3, A3 AR (Homo sapiens, UniProt P0DMS8).
T3 construct: expressed in transfected cells
T3 sequence (P0DMS8 1-318): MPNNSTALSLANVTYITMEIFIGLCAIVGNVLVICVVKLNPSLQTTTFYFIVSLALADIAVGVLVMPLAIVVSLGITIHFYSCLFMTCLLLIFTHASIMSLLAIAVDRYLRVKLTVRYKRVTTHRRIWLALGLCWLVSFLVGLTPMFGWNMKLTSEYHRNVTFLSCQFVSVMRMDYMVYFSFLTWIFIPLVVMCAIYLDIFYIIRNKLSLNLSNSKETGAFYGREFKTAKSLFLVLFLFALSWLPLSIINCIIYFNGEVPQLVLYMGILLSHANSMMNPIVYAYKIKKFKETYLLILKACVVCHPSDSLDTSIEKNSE
In words: Radioligand competition binding to human A3 adenosine receptor (125I-ABA). The following applies: membranes of HEK 293 cells expressing A3 AR, read-out: A3 (nM) binding affinity. As for the experimental part:
as §1, §2

Take `Nc1nc(C#CC2(O)CC3CCC2C3)nc2c1ncn2[C@@H]1O[C@H](C(=O)NC2CC2)C(O)C1O` (stereo in doubt) [Example 1, 5-[6-Amino-2-(2-hydroxy-bicyclo[2.2.1]hept-2-ylethynyl)-purin-9-yl]-3,4-dihydroxy-tetrahydro-furan-2-carboxylic acid cyclopropylamide]: the Ki at human A1 AR was found to be 10 nM; in experiment [1] it was 0.6 nM; at A3 AR it was 7 nM. Also, the EC50 in the experiment on human neutrophils (Homo sapiens, Neutrophil) was 0.9 nM.

For `Nc1nc(C#CC2(O)C3CC4CC(C3)CC2C4)nc2c1ncn2[C@@H]1O[C@H](C(=O)NC2CC2)C(O)C1O` (stereo in doubt) [Example 3, 5-[6-Amino-2-(2-hydroxy-adamantan-2-ylethynyl)-purin-9-yl]-3,4-dihydroxy-tetrahydro-furan-2-carboxylic acid cyclopropylamide], the Ki at human A1 AR was 67.2 nM; in experiment [1] it was 1 nM; on A3 AR it was 45.4 nM. Further, the EC50 in the experiment on human neutrophils (Homo sapiens, Neutrophil) came out at 2.4 nM.

Take `Nc1nc(C#CC2(O)CC3CCC2C3)nc2c1ncn2[C@@H]1O[C@H](C(=O)NC2CC2)C(O)C1O` (stereo in doubt) [Example 2, 5-[6-Amino-2-(2-hydroxy-bicyclo[2.2.1]hept-2-ylethynyl)-purin-9-yl]-3,4-dihydroxy-tetrahydro-furan-2-carboxylic acid cyclopropylamide]: the Ki stood at 18 nM at human A1 AR, 2 nM in experiment [1] and 12 nM at A3 AR. Moreover, the EC50 in the experiment on human neutrophils was 1.5 nM.
